Read-outs that look alike come from different tables or passages of the source.
Biological target: T1, SIRT1 (Homo sapiens, UniProt Q96EB6)
T1 sequence (Q96EB6 1-747): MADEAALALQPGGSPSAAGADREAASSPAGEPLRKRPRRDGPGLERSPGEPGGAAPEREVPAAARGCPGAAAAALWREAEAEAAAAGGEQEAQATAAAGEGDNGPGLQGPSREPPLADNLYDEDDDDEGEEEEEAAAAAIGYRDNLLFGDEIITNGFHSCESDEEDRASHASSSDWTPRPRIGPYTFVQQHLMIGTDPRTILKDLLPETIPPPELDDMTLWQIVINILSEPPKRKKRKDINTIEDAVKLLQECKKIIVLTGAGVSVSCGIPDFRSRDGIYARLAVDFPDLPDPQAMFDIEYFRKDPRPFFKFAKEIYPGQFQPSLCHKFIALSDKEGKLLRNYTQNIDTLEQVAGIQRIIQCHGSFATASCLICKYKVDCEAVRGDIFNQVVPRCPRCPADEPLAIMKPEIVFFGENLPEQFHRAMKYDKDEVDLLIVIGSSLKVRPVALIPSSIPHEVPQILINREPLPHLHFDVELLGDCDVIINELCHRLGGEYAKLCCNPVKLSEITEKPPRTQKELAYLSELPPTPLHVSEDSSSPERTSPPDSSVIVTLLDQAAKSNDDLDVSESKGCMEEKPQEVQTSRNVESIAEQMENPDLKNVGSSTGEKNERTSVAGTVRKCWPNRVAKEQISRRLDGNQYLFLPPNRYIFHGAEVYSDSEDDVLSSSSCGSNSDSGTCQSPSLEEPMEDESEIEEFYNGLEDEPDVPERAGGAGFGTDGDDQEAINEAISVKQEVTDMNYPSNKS
Assay: Trp mass spectrometry assay of SIRT1 activation (Ac-R-H-K-K(Ac)-W-NH2 peptide)
Assay type: biochemical
Settings: for Emax: 25 min, read-out: TRP MAX RESP (percent maximum fold activation)
In short: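 N-terminal His-tagged human SIRT1, expressed in BL21(DE3) and purified, was incubated 25 min with an acetylated Trp peptide and NAD plus test compound at varying concentrations, then quenched with formic acid. OAADPR or deacetylated peptide was quantified by mass spectrometry versus compound-free control; EC1.5 is the concentration giving 50% activity increase, with percent maximum activation.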

[1] = Trp peptide 0.5 μM, 120 μM βNAD+, 10 nM SIRT1, 25 min at 25° C.
[2] = Trp peptide 0.5 μM, 120 μM βNAD+, 10 nM SIRT1, 25 min at 25° C., relative to control (100%)

SMILES | TRP Activity (EC1.5, concentration of test compound that results in 150% activation of SIRT1) [1] | Emax [2] | TRP MAX RESP (percent maximum fold activation) [2] | Emax
O=C(NCC(F)F)c1ccc2c(n1)N(C(=O)Nc1ccccn1)[C@H]1CCN2C1 [Example 116, (4S)—N7-(2,2-difluoroethyl)-N5-(pyridin-2-yl)-3,4-dihydro-1,4-methanopyrido[2,3-b][1,4]diazepine-5,7(2H)-dicarboxamide] | A (EC1.5<1 μM) |  |  | > 150%
Cc1ccc2c(NC(=O)N3c4nc(C(=O)N[C@H](C)C(F)(F)F)c(Cl)cc4N4CC[C@H]3C4)n[nH]c2n1 [Example 316, (4S)-8-chloro-N5-(6-methyl-1H-pyrazolo[3,4-b]pyridin-3-yl)-N7-((R)-1,1,1-trifluoropropan-2-yl)-3,4-dihydro-1,4-methanopyrido[2,3-b][1,4]diazepine-5,7(2H)-dicarboxamide] | B (EC1.5 1-25 μM) | < 150% |  | 
Cn1cccc(NC(=O)N2c3nc(C(=O)NC4CC4)ccc3N3CC[C@H]2C3)c1=O [Example 216, (4S)—N7-cyclopropyl-N5-(1-methyl-2-oxo-1,2-dihydropyridin-3-yl)-3,4-dihydro-1,4-methanopyrido[2,3-b][1,4]diazepine-5,7(2H)-dicarboxamide] | B (EC1.5 1-25 μM) | > 150% |  | 
O=C(NC1CC1)c1ccc2c(n1)N(C(=O)Nc1cc3c(cn1)OCCC3)[C@H]1CCN2C1 [Example 160, (4S)—N7-cyclopropyl-N5-(3,4-dihydro-2H-pyrano[2,3-c]pyridin-6-yl)-3,4-dihydro-1,4-methanopyrido[2,3-b][1,4]diazepine-5,7(2H)-dicarboxamide] | A (EC1.5<1 μM) | > 150% |  | 
Cc1cc(F)cnc1NC(=O)N1c2nc(C(=O)N[C@H](C)C(F)(F)F)ccc2N2CC[C@H]1C2 [Example 57, (4S)—N5-(5-fluoro-3-methylpyridin-2-yl)-N7-((R)-1,1,1-trifluoropropan-2-yl)-3,4-dihydro-1,4-methanopyrido[2,3-b][1,4]diazepine-5,7(2H)-dicarboxamide] | B (EC1.5 1-25 μM) | > 150% |  | 
O=C(NCc1cccnc1)c1ccc2c(n1)N(C(=O)Nc1cc(OC[C@H](O)CO)ccn1)[C@H]1CCN2C1 [Example 226, (4S)—N5-(4-((R)-2,3-dihydroxypropoxy)pyridin-2-yl)-N7-(pyridin-3-ylmethyl)-3,4-dihydro-1,4-methanopyrido[2,3-b][1,4]diazepine-5,7(2H)-dicarboxamide] | B (EC1.5 1-25 μM) | > 150% |  | 
Cc1ccc2c(NC(=O)N3c4nc(C(=O)N[C@H](C)C(F)(F)F)cc(C)c4N4CC[C@H]3C4)n[nH]c2n1 [Example 289, (4S)-9-methyl-N5-(6-methyl-1H-pyrazolo[3,4-b]pyridin-3-yl)-N7-((R)-1,1,1-trifluoropropan-2-yl)-3,4-dihydro-1,4-methanopyrido[2,3-b][1,4]diazepine-5,7(2H)-dicarboxamide] | A (EC1.5<1 μM) | > 150% |  | 
C[C@@H](NC(=O)c1ccc2c(n1)N(C(=O)Nc1cc3cn[nH]c3cn1)[C@H]1CCN2C1)C(F)(F)F [Example 170, (4S)—N5-(1H-pyrazolo[3,4-c]pyridin-5-yl)-N7-((R)-1,1,1-trifluoropropan-2-yl)-3,4-dihydro-1,4-methanopyrido[2,3-b][1,4]diazepine-5,7(2H)-dicarboxamide] | A (EC1.5<1 μM) | > 150% |  | 
Cc1cc(C(=O)NCC(F)(F)F)nc2c1N1CC[C@@H](C1)N2C(=O)Nc1ccccn1 [Example 287, (4S)-9-methyl-N5-(pyridin-2-yl)-N7-(2,2,2-trifluoroethyl)-3,4-dihydro-1,4-methanopyrido[2,3-b][1,4]diazepine-5,7(2H)-dicarboxamide] | A (EC1.5<1 μM) | > 150% |  | 
NC(CNC(=O)c1ccc2c(n1)N(C(=O)Nc1cc(OC[C@H](O)CO)ccn1)[C@H]1CCN2C1)C(F)(F)F (single isomer, unassigned) [Example 317] | B (EC1.5 1-25 μM) |  | B (Fold Activation<150%) | 
C[C@@H](NC(=O)c1ccc2c(n1)N(C(=O)Nc1cc[nH]n1)[C@H]1CCN2C1)C(F)(F)F [Example 68, (4S)—N5-(1H-pyrazol-3-yl)-N7-((R)-1,1,1-trifluoropropan-2-yl)-3,4-dihydro-1,4-methanopyrido[2,3-b][1,4]diazepine-5,7(2H)-dicarboxamide] | A (EC1.5<1 μM) | > 150% |  | 
O=C(NCc1ccccc1)c1ccc2c(n1)N(C(=O)Nc1cc(OC[C@H](O)CO)ccn1)[C@H]1CCN2C1 [Example 171, (4S)—N7-benzyl-N5-(4-((R)-2,3-dihydroxypropoxy)pyridin-2-yl)-3,4-dihydro-1,4-methanopyrido[2,3-b][1,4]diazepine-5,7(2H)-dicarboxamide] | A (EC1.5<1 μM) | > 150% |  | 

The next lines start with results.

TRP Activity (EC1.5, concentration of test compound that results in 150% activation of SIRT1) [1] | Emax [2] | TRP MAX RESP (percent maximum fold activation) [2] | SMILES | Emax
B (EC1.5 1-25 μM) | > 150% |  | COc1ccnc(NC(=O)N2c3nc(C(=O)N[C@@H]4CC4(F)F)ccc3N3CC[C@H]2C3)c1 (single isomer, unassigned) [Example 274] | 
B (EC1.5 1-25 μM) | > 150% |  | CN(C)CCOc1ccnc(NC(=O)N2c3nc(C(=O)NCC(F)(F)F)ccc3N3CC[C@H]2C3)c1 [Example 227, (4S)—N5-(4-(2-(dimethylamino)ethoxy)pyridin-2-yl)-N7-(2,2,2-trifluoroethyl)-3,4-dihydro-1,4-methanopyrido[2,3-b][1,4]diazepine-5,7(2H)-dicarboxamide] | 
B (EC1.5 1-25 μM) | > 150% |  | O=C(O)c1ccnc(NC(=O)N2c3nc(C(=O)NCC(F)(F)F)ccc3N3CC[C@H]2C3)c1 [Example 267, 2-((4S)-7-((2,2,2-trifluoroethyl)carbamoyl)-2,3,4,5-tetrahydro-1,4-methanopyrido[2,3-b][1,4]diazepine-5-carboxamido)isonicotinic acid] | 
A (EC1.5<1 μM) | > 150% |  | COc1ccnc(NC(=O)N2c3nc(C(=O)NCC(F)(F)F)ccc3N3CC[C@H]2C3)c1 [Example 136, (4S)—N5-(4-methoxypyridin-2-yl)-N7-(2,2,2-trifluoroethyl)-3,4-dihydro-1,4-methanopyrido[2,3-b][1,4]diazepine-5,7(2H)-dicarboxamide] | 
A (EC1.5<1 μM) | < 150% |  | CC(C)NC(=O)c1ccnc(NC(=O)N2c3nc(C(=O)N[C@H](C)C(F)(F)F)ccc3N3CC[C@H]2C3)c1 [Example 297, (4S)—N5-(4-(isopropylcarbamoyl)pyridin-2-yl)-N7-((R)-1,1,1-trifluoropropan-2-yl)-3,4-dihydro-1,4-methanopyrido[2,3-b][1,4]diazepine-5,7(2H)-dicarboxamide] | 
B (EC1.5 1-25 μM) | > 150% |  | CONC(=O)c1ccc2c(n1)N(C(=O)Nc1ccccn1)[C@H]1CCN2C1 [Example 228, (4S)—N7-methoxy-N5-(pyridin-2-yl)-3,4-dihydro-1,4-methanopyrido[2,3-b][1,4]diazepine-5,7(2H)-dicarboxamide] | 
A (EC1.5<1 μM) | > 150% |  | O=C(NCCF)c1ccc2c(n1)N(C(=O)Nc1ccccn1)[C@H]1CCN2C1 [Example 39, (4S)—N7-(2-fluoroethyl)-N5-(pyridin-2-yl)-3,4-dihydro-1,4-methanopyrido[2,3-b][1,4]diazepine-5,7(2H)-dicarboxamide] | 
A (EC1.5<1 μM) | > 150% |  | C[C@@H](NC(=O)c1ccc2c(n1)N(C(=O)Nc1cc(OCCO)ccn1)[C@H]1CCN2C1)C(F)(F)F [Example 132, (4S)—N5-(4-(2-hydroxyethoxy)pyridin-2-yl)-N7-((R)-1,1,1-trifluoropropan-2-yl)-3,4-dihydro-1,4-methanopyrido[2,3-b][1,4]diazepine-5,7(2H)-dicarboxamide] | 

From patent US10072011B2, “Substituted bridged urea analogs as sirtuin modulators” (GlaxoSmithKline Intellectual Property (No.2) Limited, priority 2014, dated 2018)
